Measurements: paper PMC4999848 (Toxins, 2016)
Several values for one entry are separate records, joined by “and”; a condition that tells them apart may be missing. Equal values may be shown once. Entries after “also recorded” stand apart in the source; their conditions may differ.

Columns and labels:
recombinant human CES2 = biological target: T1, recombinant human CES2 (Homo sapiens, UniProt O00748); assay: Deacetylation of 3/15ADON by recombinant CES2; format: in vitro ADME; parameters: purchased R&D Systems; conditions: 5 μg/mL CES2, up to 24 h, data not shown
T1 sequence (O00748 27-559): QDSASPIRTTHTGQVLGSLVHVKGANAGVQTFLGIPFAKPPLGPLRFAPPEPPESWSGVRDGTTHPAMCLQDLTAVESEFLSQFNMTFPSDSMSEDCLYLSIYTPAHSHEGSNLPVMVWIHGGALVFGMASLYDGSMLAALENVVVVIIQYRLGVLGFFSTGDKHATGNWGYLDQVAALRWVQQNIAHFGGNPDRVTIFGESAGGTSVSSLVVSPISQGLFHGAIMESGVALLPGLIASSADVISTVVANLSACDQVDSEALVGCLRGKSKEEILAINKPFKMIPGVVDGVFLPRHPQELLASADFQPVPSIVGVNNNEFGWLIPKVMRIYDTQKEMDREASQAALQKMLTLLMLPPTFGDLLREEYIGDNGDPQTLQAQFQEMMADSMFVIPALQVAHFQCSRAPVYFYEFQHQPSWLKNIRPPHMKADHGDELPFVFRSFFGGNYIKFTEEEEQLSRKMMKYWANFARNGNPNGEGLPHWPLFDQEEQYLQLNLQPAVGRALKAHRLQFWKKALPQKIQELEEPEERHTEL
Protocol: Stock solutions of DON, 3ADON and 15ADON at 2 mg/mL were prepared in absolute ethanol and stored at −20 °C. For deacetylation assay, 3- or 15ADON were incubated with cells, explants, bacteria or digestive enzymes after being diluted in PBS^++ at a final concentration of 100 μM. PBS^++ solution containing only ethanol (at 1.5% final concentration) or DON (at 100 μM) were used in parallel as negative and positive control, respectively. For cells and explants, deacetylation assay take place in 6-well plates, wells being filled with 2 mL of PBS^++ containing either ethanol, DON, 3- or 15ADON. For fecal bacteria and digestive enzyme assay, deacetylation assay was conducted in 2 mL Eppendorf tubes filled with 1.5 mL of PBS^++ containing either ethanol, DON, 3- or 15ADON. In vitro intestinal digestion by luminal enzymes was performed using porcine enzymes from Sigma-Aldrich and physiological conditions. […] In all cases, aliquots of the reaction solution were collected immediately (i.e., “time zero” sample) or after the indicated time period at 37 °C and analyzed by HPLC. […]
Deacetylation was monitoring both in term of disappearance of 3- or 15ADON and formation of DON. […] Quantification was based on calibration with the corresponding standard using Millinium Software (Waters, Saint Quentin Falavier, France).

small intestinal explant = assay: Deacetylation of 3/15ADON by human small intestinal explants; format: in vitro ADME; conditions: for Contribution to total deacetylation activity: Small intestine: percentage of sum of specific activities (Figure 8); for Disappearance of 3/15ADON, specific activity: small intestinal explant, 37 °C, substrate 100 μM; for % of deacetylation: small intestinal explants, 6 h incubation, 100 μM
Excerpt: (§1) Human tissue samples were obtained from patients undergoing surgery at the Hospital Nord of Marseille, unit of general and gastrointestinal surgery according to a collaborative “clinical transfer” project. The procedures were approved by the French ethic committee (CODECOH n° DC-2011-1319). Patients were from both genders (six men, three women), 31–74 years of age, all of European origin. All patients agree to use their tissues for research purposes. Samples were taken from macroscopically unaffected area as identified by the surgeon for intestinal samples or the pathologist for liver resections. Diagnoses leading to surgery were carcinoma for intestine or liver. After resection, the specimens were placed in ice-cold non-sterile Krebs solution implemented and transferred to the school of medicine on the same campus within 5 min, composition of the Krebs solution being previously described. The tissues were rinsed several times and maintained in oxygenated Krebs during 1 h for recovery before final dissection. Intestinal and hepatic resections were extensively washed and maintained in ice-cold culture media containing 1% streptomycin/penicillin solution and 50 μg/mL gentamycin. Tissues were cleaned from vascular vessels and conjunctive tissue using forceps under binocular microscope. In case of intestinal resection, muscularis and plexus were removed and only epithelial layer was kept. Intestinal and hepatic explants (wet weight of 20–30 mg) were then isolated from the cleaned resections using surgical punch (diameter of […]). […] Finally, the explants were washed 3 times with PBS^++ and transferred into 6-well plates before being used for deacetylation assay.
(§2) Stock solutions of DON, 3ADON and 15ADON at 2 mg/mL were prepared in absolute ethanol and stored at −20 °C. For deacetylation assay, 3- or 15ADON were incubated with cells, explants, bacteria or digestive enzymes after being diluted in PBS^++ at a final concentration of 100 μM. PBS^++ solution containing only ethanol (at 1.5% final concentration) or DON (at 100 μM) were used in parallel as negative and positive control, respectively. For cells and explants, deacetylation assay take place in 6-well plates, wells being filled with 2 mL of PBS^++ containing either ethanol, DON, 3- or 15ADON. For fecal bacteria and digestive enzyme assay, deacetylation assay was conducted in 2 mL Eppendorf tubes filled with 1.5 mL of PBS^++ containing either ethanol, DON, 3- or 15ADON. In vitro intestinal digestion by luminal enzymes was performed using porcine enzymes from Sigma-Aldrich and physiological conditions. Briefly, 3- or 15ADON were incubated with pepsin (at 1.6 mg/mL corresponding to 900 U/mL), trypsin (at 0.35 mg/mL corresponding to 6000 U/mL), pancreatic lipase (at 0.75 mg/mL corresponding to 18 U/mL) or pancreatin (at 1.23 mg/mL, lipase activity >10 U/mL, protease activity >100 U/mL, amylase activity >100 U/mL). Except for pepsin for which the digestion was conducted in HCl solution at 10 mM (pH 2.3), in vitro digestion was performed in PBS^++ (pH 7.4). Finally, deacetylation assay was also performed with commercial pooled S9 fractions from human liver, small intestine and kidneys as well as with pure recombinant human CES1 and CES2. S9 fractions and CES1/2 were used at 0.1 mg/mL and 5 μg/mL (corresponding to CES activity >20 U/mL), respectively. In all cases, aliquots of the reaction solution were collected immediately (i.e., “time zero” sample) or after the indicated time period at 37 °C and analyzed by HPLC. […] In all cases, the experiments were conducted in triplicate (n = 3).

colonic explant = assay: Deacetylation of 3/15ADON by human colonic explants; format: in vitro ADME; conditions: for Disappearance of 3/15ADON, specific activity: colonic explant, 37 °C, substrate 100 μM; for % of deacetylation: colonic explants, 6 h incubation, 100 μM; for Contribution to total deacetylation activity: Colon: percentage of sum of specific activities (Figure 8)
Excerpt: as §1, §2

pepsin = biological target: T2, pepsin (Sus scrofa, UniProt P00791); assay: Deacetylation of 3/15ADON by pepsin; format: in vitro ADME, porcine; conditions: for Disappearance of 3/15ADON, specific activity: pepsin 1.6 mg/mL, HCl 10 mM pH 2.3, 37 °C, substrate 100 μM; for Contribution to total deacetylation activity: Pepsin: percentage of sum of specific activities (Figure 8)
T2 construct: purchased Sigma-Aldrich
T2 sequence (P00791 60-385): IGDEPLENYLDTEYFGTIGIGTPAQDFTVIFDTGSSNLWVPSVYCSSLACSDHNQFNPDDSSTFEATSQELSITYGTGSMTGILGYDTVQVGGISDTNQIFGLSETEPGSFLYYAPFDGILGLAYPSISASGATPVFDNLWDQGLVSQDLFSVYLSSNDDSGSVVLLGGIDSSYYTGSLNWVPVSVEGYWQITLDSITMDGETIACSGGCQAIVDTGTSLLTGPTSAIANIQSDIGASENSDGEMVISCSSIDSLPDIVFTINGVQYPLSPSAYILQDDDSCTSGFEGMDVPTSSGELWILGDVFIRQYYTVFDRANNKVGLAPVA
Protocol: as §2
Deacetylation was monitoring both in term of disappearance of 3- or 15ADON and formation of DON. Measurement of DON, 3ADON and 15ADON concentrations was performed by reversed-phase HPLC using Waters Alliance System equipped with a Waters 2690 XE separation module and a Waters 996 photodiode array detector (Waters, Saint Quentin Falavier, France). The separation was achieved by mean of a LiChroCart column (125 mm × 4 mm) packed with 5 μm RP-18 Purospher gel (Merck, Darmstadt, Germany) and equipped with a LiChroCart precolumn (4 mm × 4 mm) packed with the same material (Merck). The precolumn and column were placed in room temperature. […] Quantification was based on calibration with the corresponding standard using Millinium Software (Waters, Saint Quentin Falavier, France).

Compound	Deacetylation activity of CES2 on 3/15ADON (recombinant human CES2)	Contribution to total deacetylation activity: Small intestine (small intestinal explant) [%]	Disappearance of 3/15ADON, specific activity (small intestinal explant)	% of deacetylation (small intestinal explant)	Disappearance of 3/15ADON, specific activity (colonic explant)	% of deacetylation (colonic explant)	Contribution to total deacetylation activity: Colon (colonic explant) [%]	Disappearance of 3/15ADON, specific activity (pepsin) [pmol/min/mg]	Contribution to total deacetylation activity: Pepsin (pepsin) [%]
CC(=O)O[C@@H]1C[C@]2(C)[C@@]3(CO)[C@H](O)C(=O)C(C)=C[C@H]3O[C@H]1[C@@]21CO1 [3ADON, 3-acetyldeoxynivalenol]	failed at observing any deacetylation activity; also recorded: unable to cause the deacetylation	26	338 pmol/min/mg and 338 ± 69 pmol/min/mg	67.3% ± 13.8%	22 ± 13 pmol/min/mg	4.2% ± 3.1%	1.7	34 ± 7.5	3
CC(=O)OC[C@]12[C@H](O)C(=O)C(C)=C[C@H]1O[C@@H]1[C@H](O)C[C@@]2(C)[C@]12CO2 [15ADON, 15-acetyldeoxynivalenol]	failed at observing any deacetylation activity; also recorded: unable to cause the deacetylation	13	85 pmol/min/mg and 85 ± 65 pmol/min/mg	17.2% ± 13.4%	4.5 pmol/min/mg and 4.5 ± 5.6 pmol/min/mg	0.2% ± 1.2%	0.7	40 ± 4.5	7
